According to ChEMBL document CHEMBL1127046, “Antitumor agents. 3. Synthesis and biological activity of 4 beta-alkyl derivatives containing hydroxy, amino, and amido groups of 4'-O-demethyl-4-desoxypodophyllotoxin as antitumor agents” (J Med Chem, 1993):

What was measured:
Tubulin = Tubulin (Bos taurus, UniProt Q6B856+Q862L2+Q862F3); experiment: Drug concentration needed to produce a 50% reduction of bovine brain tubulin polymerization relative to the control
[1] = Inhibition of DNA topoisomerase II from rat liver measured as 50% reduction in the amount of minicircle DNA relative to the control
P388 = experiment: Cytotoxicity against P388 leukemia; type: functional, cell-based; conditions: Mus musculus
L1210 [2] = experiment: The number of mice survived for 30 days at the dose of 10 (mg/kg/day); type: functional, Mus musculus
L1210 [3] = experiment: Antitumor activity in vivo expressed as the percentage increase in life span at the dose of 10 (mg/kg/day); type: functional, Mus musculus

SMILES | IC50 (Tubulin) | IC50 [1] | IC50 (P388) | Survivors (L1210 [2]) | ILS max (L1210 [3])
COc1cc([C@@H]2c3cc4c(cc3[C@@H](CCN(C)C3CCCCC3)C3COC(=O)[C@@H]32)OCO4)cc(OC)c1O.Cl (some centres not stated) | > 167 µM | 60.9 µM | 33 nM | – | –
COc1cc([C@@H]2c3cc4c(cc3[C@@H](CCN3CCOCC3)C3COC(=O)[C@@H]32)OCO4)cc(OC)c1O.Cl (some centres not stated) | > 167 µM | 58.3 µM | 26 nM | 0 | 81%
COc1cc([C@@H]2c3cc4c(cc3[C@@H](CC(=O)NCCN3CCOCC3)C3COC(=O)[C@@H]32)OCO4)cc(OC)c1O.Cl (some centres not stated) | > 100 µM | – | 220 nM | – | –
COc1cc([C@@H]2c3cc4c(cc3[C@@H](CCN3CCC[C@@H]3CO)C3COC(=O)[C@@H]32)OCO4)cc(OC)c1O.Cl (some centres not stated) | > 62 µM | 112 µM | 63 nM | – | –
COc1cc([C@@H]2c3cc4c(cc3[C@@H](CCN(C)N(C)c3ccccc3)C3COC(=O)[C@@H]32)OCO4)cc(OC)c1O (some centres not stated) | – | – | > 1000 nM | – | –
COc1cc([C@@H]2c3cc4c(cc3[C@@H](CC(=O)N3CCC(N5CCCCC5)CC3)C3COC(=O)[C@@H]32)OCO4)cc(OC)c1O.Cl (some centres not stated) | > 100 µM | 266 µM | 8.4 nM | – | –
COc1cc([C@@H]2c3cc4c(cc3[C@@H](CCN(C)Cc3ccccc3)C3COC(=O)[C@@H]32)OCO4)cc(OC)c1O.Cl (some centres not stated) | > 167 µM | 97.3 µM | 150 nM | 0 | 53%
COc1cc([C@@H]2c3cc4c(cc3[C@@H](CC(=O)N(C)CCN(C)C)C3COC(=O)[C@@H]32)OCO4)cc(OC)c1O.Cl (some centres not stated) | > 100 µM | 252 µM | 32 nM | – | –
COc1cc([C@@H]2c3cc4c(cc3[C@@H](CC(=O)NCCN3CCCCC3)C3COC(=O)[C@@H]32)OCO4)cc(OC)c1O.Cl (some centres not stated) | > 100 µM | 60.6 µM | 3000 nM | – | –
COc1cc([C@@H]2c3cc4c(cc3[C@@H](CC(=O)NCc3ccncc3)C3COC(=O)[C@@H]32)OCO4)cc(OC)c1O.Cl (some centres not stated) | > 100 µM | – | 2200 nM | – | –
COc1cc([C@@H]2c3cc4c(cc3[C@@H](CCN3CCCCC3)C3COC(=O)[C@@H]32)OCO4)cc(OC)c1O.Cl (some centres not stated) | > 167 µM | 67.7 µM | 12 nM | – | –
COc1cc([C@@H]2c3cc4c(cc3[C@@H](CCN(C)C(CO)CO)C3COC(=O)[C@@H]32)OCO4)cc(OC)c1O.Cl (some centres not stated) | > 167 µM | 25.1 µM | 660 nM | – | –
COCCN(C)CC[C@@H]1c2cc3c(cc2[C@@H](c2cc(OC)c(O)c(OC)c2)[C@H]2C(=O)OCC12)OCO3.Cl (some centres not stated) | > 100 µM | 75.8 µM | 160 nM | – | –
COc1cc([C@@H]2c3cc4c(cc3[C@@H](CCCN(C)C)C3COC(=O)[C@@H]32)OCO4)cc(OC)c1O.Cl (some centres not stated) | > 167 µM | 73.5 µM | 12 nM | – | –
